The nature of data set [1]: Antitumor activity against mouse mammary cancer cell implanted in C3H/An mouse assessed as inhibition of tumor growth at 0.5 mg/day for 14 days. Type of data set: functional, Cancer cell lines.
The test system of another data set is HCT-116. The data set can be described thus: Cytotoxicity against human HCT116 cells. In kind it is functional, cell-based.
The next data set relates to Mus musculus. Description: Toxicity in ip dosed ddY mouse bearing mouse S180 cells. In kind it is organism-based, CCRF S-180. Particulars: in vivo.
For data set [2], the system named is CCRF S-180. The data set can be described thus: Antitumor activity against mouse S180 cells implanted in ip dosed ddY mouse assessed as tumor volume after 7 days. Type of data set: functional.
A further data set has as its system L5178Y. The data set can be described thus: Cytotoxicity against mouse L5178Y cells. In kind it is functional, cell-based.
Data set [3] deals with CCRF S-180. The data set can be described thus: Antitumor activity against mouse S180 cells xenografted in rat. Type of data set: functional.
The nature of data set [4]: Antitumor activity against mouse EAC cells xenografted in rat. Type of data set: functional, Ehrlich.
For a further data set, the system named is HL-60. The data set can be described thus: Cytotoxicity against human HL60 cells. In kind it is functional, cell-based.
The next data set relates to L1210. The data set can be described thus: Cytotoxicity against mouse L1210 cells. Type of data set: functional, cell-based.

≈ marks a conversion by molar mass, not a printed value.

Consider `CC(=O)[C@H]1C(N2CC2)C[C@H]2[C@@H]3CC=C4C[C@@H](O)CC[C@]4(C)[C@H]3CC[C@]12C` (some centres undefined), for which, in data set [1], the “inhibition (INH)” value is 61%.
Molecule `COC(=O)[C@H]1N=C1/C=C/CCCCCCCCCC=C(Cl)Cl` yielded an IC50 in the data set on HCT-116 of 24800 nM.
On to `COC(=O)[C@@H]1N=C1/C=C\CCCCCCCCC/C=C(/Cl)Br`, for which, in the data set on HCT-116, the IC50 was 13600 nM. Against the preceding molecule, the IC50 is about 1.8-fold lower.
`COC1=C(C)C(=O)C2=C(C1=O)[C@H](COC(N)=O)[C@@]1(OC)[C@@H]3[C@H](CN21)N3C` (some centres undefined) [MITOMYCIN J] had an LD50 in the data set with Mus musculus of 9 µg/mL. For the same molecule, in the data set with CCRF S-180 [2], the ED50 amounted to 10 µg/mL (≈ 27.5 µM).
Consider `CC(=O)NC1CCn2c1nc1c2CC(C)=C(N2CC2)C1=O` (centres undefined), for which, in the data set on L5178Y, half-maximal inhibition (IC50) required 4000 nM. In other words, the single-digit micromolar range.
On to `C=C1C2=C(C(=O)C(C)=C(N)C2=O)N2C[C@H]3[C@H](N3C)[C@]12O` (some centres undefined) [MITOMYCIN Z], for which, in the data set on Mus musculus, the LD50 was found to be 210 µg/mL. The ED50 in the data set on CCRF S-180 [2] worked out at 82 µg/mL (≈ 300 µM).
For the molecule `CC1(C)CC(CCC(=O)ONP(=O)(N2CC2)N2CC2)CC(C)(C)N1O`, the figures for the Activity (in the data set with CCRF S-180 [3]; in [4]) were 93% and 90%, respectively.
As to `COC1=C(C)C(=O)C2=C(C1=O)[C@@H](COC(N)=O)[C@@]1(OC)[C@H]3N[C@H]3CN21` [MITOMYCIN A], in the data set on Mus musculus, the LD50 stood at 2.1 µg/mL. Moreover, in the data set with CCRF S-180 [2], the ED50 was determined as 1.1 µg/mL (≈ 3.15 µM).
`CC1(C)CC(C(=O)ONP(=O)(N2CC2(C)C)N2CC2(C)C)CC(C)(C)N1O` (centres undefined) showed an Activity in the data set with CCRF S-180 [3] of 93%.
Consider `CC1(C)CC(CCC(=O)ONP(=O)(N2CC2(C)C)N2CC2(C)C)CC(C)(C)N1O` (centres undefined), for which the Activity in the data set with CCRF S-180 [3] worked out at 93%; in data set [4], 90%.
In the case of `Nc1nc(=O)c2c(CNC(=O)N3CC3)c[nH]c2[nH]1`, the IC50 in the data set with L5178Y was 9 µg/mL.
`CC(=O)O[C@H]1C(=O)[C@@]2(C)C([C@H](OC(=O)c3ccccc3)[C@]3(O)C[C@H](OC(=O)[C@@H](O)[C@H](NC(=O)c4ccccc4)c4ccccc4)C(C)=C1C3(C)C)[C@]1(OC(=O)N3CC3)CO[C@@H]1C[C@@H]2O` (some centres undefined) yielded an IC50 in the data set with HCT-116 of 15.6 nM.
For `COC(=O)[C@H]1N=C1/C=C/CCCCCCCCCC=C(Br)Br`, in the data set with HCT-116, the IC50 was 19600 nM.
As for `CC(=O)O[C@H]1C(=O)[C@@]2(C)C([C@H](OC(=O)c3ccccc3)[C@]3(O)C[C@H](OC(=O)[C@@H](O)[C@H](CC(=O)OC(C)(C)C)c4ccco4)C(C)=C1C3(C)C)[C@]1(OC(=O)N3CC3)CO[C@@H]1C[C@@H]2O` (some centres undefined), the IC50 with HCT-116 is 2 nM.
As for `CC(=O)O[C@H]1C(=O)[C@@]2(C)C([C@H](OC(=O)c3ccccc3)[C@]3(O)C[C@H](OC(=O)[C@@H](O)[C@H](CC(=O)c4ccccc4)c4ccco4)C(C)=C1C3(C)C)[C@]1(OC(=O)N3CC3)CO[C@@H]1C[C@@H]2O` (some centres undefined), in the data set with HCT-116, it took 6.9 nM to reach half-maximal inhibition (IC50).
For the molecule `NCCCNCCCCN1CC1`, the values for the IC50 in the data set on HL-60 and in the data set on L1210 were 300 nM and 310 nM, respectively.
In the data set on Mus musculus, `COC1=C(C)C(=O)C2=C(C1=O)[C@@H](COC(N)=O)[C@@]1(O)[C@H]3N[C@H]3CN21` [9A-DEMETHYLMITOMYCIN A] yielded an LD50 of 7.5 µg/mL. In addition, in the data set on CCRF S-180 [2], the ED50 worked out at 4.9 µg/mL (≈ 14.6 µM).

In general, IC50 refers to the concentration that gives 50% inhibition. The low end stands for higher potency, the high end for lower potency.

(Values after ChEMBL document CHEMBL1154010, “Aziridine alkaloids as potential therapeutic agents” (Eur J Med Chem, 2009).)
